From paper PMC8041284, “Tunable Methacrylamides for Covalent Ligand Directed Release Chemistry” (Journal of the American Chemical Society, 2021)
Read-outs that look alike come from different tables or passages of the source.

Target: BTK (Homo sapiens, UniProt Q06187)
Assay: biochemical
[1] = read-out: BTK inhibition (%), 0.75 uM BTK, […] probe 3l, 15 min preincubation

Sequence of BTK (Q06187 402-655 limits assumed): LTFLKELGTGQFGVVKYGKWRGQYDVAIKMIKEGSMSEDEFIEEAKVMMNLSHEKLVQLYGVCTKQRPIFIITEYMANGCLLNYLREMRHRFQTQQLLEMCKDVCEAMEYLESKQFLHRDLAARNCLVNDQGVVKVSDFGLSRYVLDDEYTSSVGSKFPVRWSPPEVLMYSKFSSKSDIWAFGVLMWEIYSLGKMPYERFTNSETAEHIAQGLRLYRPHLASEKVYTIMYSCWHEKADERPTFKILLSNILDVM

Row | Structure (SMILES) | inhibition at 10 µM [1] [%] | inhibition at 10 µM (read-out: BTK inhibition (%)) [%]
1 | CN1[C@@H]2CCC[C@H]1CC(NC(=O)c1nn(C)c3ccccc13)C2 (stereo partly drawn) [PCM-0064932] | 10.2 | –
2 | CC(=O)OCC1=C[C@@H]2OC(=O)C3=CO[C@@H](O[C@@H]4O[C@H](CO)[C@@H](O)[C@H](O)[C@H]4O)[C@H]1[C@@H]32 [PCM-0216352] | 10.8 | –
3 | CCCCCCCCCCCCCCCc1cccc(O)c1C(=O)O [PCM-0215370] | -19.3 | –
4 | COC(c1ccccc1)(c1ccccc1)[C@H](Oc1nc(C)cc(C)n1)C(=O)O [PCM-0095259] | 10.9 | –
5 | O=c1cc(-c2ccc(O)cc2)oc2cc(O)c([C@@H]3O[C@H](CO)[C@@H](O)[C@H](O)[C@H]3O)c(O)c12 [PCM-0216601] | 11.6 | –
6 | NC(N)=NCCC[C@H](N)C(=O)NCC(=O)N[C@@H](CC(=O)O)C(=O)O [PCM-0215176] | 9.4 | –
7 | COc1cc2c(cc1OC)C(=O)C(CC1CCN(Cc3ccccc3)CC1)C2 (stereo not drawn) [PCM-0090394] | -23.8 | –
8 | O=c1[nH]cnc2nc[nH]c12 [PCM-0091022] | -22.1 | –
9 | C[C@](O)(COc1ccc(C#N)cc1)C(=O)Nc1ccc(C#N)c(C(F)(F)F)c1 [PCM-0095045] | – | -0.8
10 | Cc1cccc(C)c1NC(=O)C1CCCCN1C (stereo not drawn) [PCM-0086182] | 3.4 | –
11 | CN1CCC(CNc2ccc3ncc(-c4cccc(OC(F)(F)F)c4)n3n2)CC1 [PCM-0095238] | 45.5 | –
12 | Nc1ncc(-c2ccnc(Nc3ccncc3)n2)c(CC2CC2)n1 [PCM-0215628] | 8.3 | –
13 | CCc1c2c(nc3ccc(O)cc13)-c1cc3c(c(=O)n1C2)COC(=O)[C@]3(O)CC [PCM-0091516] | -28.8 | –
14 | Cc1ccc(C(=O)c2ccc(CC(=O)O)n2C)cc1 [PCM-0215259] | 9.4 | –
15 | Cc1ccc(=O)n(-c2ccccc2)c1 [PCM-0064803] | 20.7 | –
16 | Cc1cc2c(F)c(Oc3ncnn4cc(OC[C@@H](C)O)c(C)c34)ccc2[nH]1 [PCM-0095049] | 9 | –
17 | CCN(CCCc1ccccc1)CCCc1ccccc1 [PCM-0085793] | -8.6 | –
18 | c1cncc(CN2CCC(n3ncc4c(N5CCOCC5)nc(-c5ccc6[nH]ccc6c5)nc43)CC2)c1 [PCM-0095384] | -27.6 | –
19 | O=C1O[C@H]([C@@H](O)CO)C(O)=C1OP(=O)(O)O [PCM-0215970] | -4.3 | –

Row | Structure (SMILES) | inhibition at 10 µM [1] [%] | inhibition at 10 µM (read-out: BTK inhibition (%)) [%]
20 | COc1cc(-c2oc3cc(O)cc(O)c3c(=O)c2O[C@@H]2O[C@H](CO[C@@H]3O[C@@H](C)[C@H](O)[C@@H](O)[C@H]3O)[C@@H](O)[C@H](O)[C@H]2O)ccc1O [PCM-0216322] | 8.5 | –
21 | Cc1nc(-c2cccnc2)sc1C(=O)Nc1ccccc1-c1cn2c(CN3CCOCC3)csc2n1 [PCM-0215454] | 12.4 | –
22 | CC(C)(N)C(=O)N[C@H](COCc1ccccc1)C(=O)N1CCC2(CC1)CN(S(C)(=O)=O)c1ccccc12 [PCM-0216059] | -11.7 | –
23 | COc1ccccc1-c1cc(Nc2cccc(CS(N)(=O)=O)c2)ncn1 [PCM-0095804] | 2.8 | –
24 | Cn1nnc2c(C(N)=O)ncn2c1=O [PCM-0086047] | -4.1 | –
25 | COCCCC/C(=N\OCCN)c1ccc(C(F)(F)F)cc1 [PCM-0065088] | -8.6 | –
26 | OC(CNc1ccccc1)Cn1c2ccc(Br)cc2c2cc(Br)ccc21 (stereo not drawn) [PCM-0215533] | 44.8 | –
27 | NCCOc1ccc(Cl)cc1C(=O)Nc1ccc([N+](=O)[O-])cc1Cl [PCM-0215860] | 7.7 | –
28 | CCCCCCCCCCCC[N+](C)(C)CCOc1ccccc1 [PCM-0214763] | -14.8 | –
29 | Cc1cc(SCc2sc(-c3ccc(C(F)(F)F)c(F)c3)nc2C)ccc1OCC(=O)O [PCM-0095608] | -5.4 | –
30 | CCn1cc(C(=O)O)c(=O)c2cc(F)c(N3CCNC(C)C3)c(F)c21 (stereo not drawn) [PCM-0065465] | -2.6 | –
31 | Fc1ccc(C(c2ccc(F)cc2)N2CCN(C/C=C/c3ccccc3)CC2)cc1 [PCM-0065210] | 87.2 | –
32 | O=C(O)CCC(=O)Nc1ccc(Br)cn1 [PCM-0215427] | -3.4 | –
33 | N#Cc1cc2cc(CN3CCC(Nc4ncnc5sc(CC(F)(F)F)cc45)CC3)ccc2[nH]1 [PCM-0215651] | 78 | –
34 | O=c1[nH]cnc2c1ncn2[C@H]1C[C@H](O)[C@@H](CO)O1 [PCM-0214983] | 0 | –
35 | C/C1=C\CC[C@]23O[C@H]2[C@@H](OC3=O)c2c(C)coc2C1 [PCM-0216481] | -16.2 | –
36 | Cc1c(C(=O)N2CCOc3ccc(-c4ccc(N)nc4)cc3C2)ccc(S(C)(=O)=O)c1F [PCM-0215244] | 1.4 | –
37 | CC1(C)C[C@@H]1C(=O)N/C(=C\CCCCSC[C@H](N)C(=O)O)C(=O)O [PCM-0216257] | -10 | –
38 | O=C(/C=C/c1ccc(O)c2c1[C@H](C(=O)O[C@H](Cc1ccc(O)c(O)c1)C(=O)O)[C@@H](c1ccc(O)c(O)c1)O2)O[C@H](Cc1ccc(O)c(O)c1)C(=O)O [PCM-0214854] | -34.2 | –

Row | Structure (SMILES) | inhibition at 10 µM [1] [%] | inhibition at 10 µM (read-out: BTK inhibition (%)) [%]
39 | CC[C@]1(O)C[C@H]2CN(CCc3c([nH]c4ccccc34)[C@@](C(=O)OC)(c3cc4c(cc3OC)N(C=O)[C@H]3[C@@](O)(C(=O)OC)[C@H](OC(C)=O)[C@]5(CC)C=CCN6CC[C@]43[C@@H]65)C2)C1 [PCM-0214794] | 9 | –
40 | COc1ccc(C=O)c(O)c1 [PCM-0216133] | 5.4 | –
41 | COc1ccc(CC(=O)O)cc1OC [PCM-0214949] | -0.8 | –
42 | COc1ccc(Cn2ccc3ccc(C(=O)NO)cc32)cc1 [PCM-0095291] | 33.5 | –
43 | O=C(CCc1ccc(O)cc1)c1c(O)cc(O[C@@H]2O[C@H](CO)[C@@H](O)[C@H](O)[C@H]2O)cc1O [PCM-0216363] | 17.8 | –
44 | CCCCCOC(=O)Nc1nc(=O)n([C@@H]2O[C@H](C)[C@@H](O)[C@H]2O)cc1F [PCM-0094987] | -11.7 | –
45 | CCc1c(Cl)c(O)c(Cl)c(O)c1C(=O)O[C@H]1[C@H](O)[C@H](OC)[C@H](OC/C2=C\C=C\C[C@H](O)/C(C)=C/[C@H](CC)[C@@H](O[C@@H]3OC(C)(C)[C@@H](OC(=O)C(C)C)[C@H](O)[C@@H]3O)/C(C)=C/C(C)=C/C[C@@H]([C@@H](C)O)OC2=O)O[C@@H]1C [PCM-0214774] | 45.9 | –
46 | CCCSc1nc(N[C@@H]2C[C@H]2c2ccc(F)c(F)c2)c2nnn([C@@H]3C[C@H](OCCO)[C@@H](O)[C@H]3O)c2n1 [PCM-0095628] | -34.2 | –
47 | O=C(O)/C=C/c1ccc(O)c(O)c1 [PCM-0064590] | -21.8 | –
48 | CCCC[N+]1(C)[C@@H]2CC(OC(=O)[C@H](CO)c3ccccc3)C[C@H]1[C@@H]1O[C@@H]12 (stereo partly drawn) [PCM-0086491] | -17.9 | –
49 | OC[C@@H](O)CN1CCN(c2ccccc2)CC1 [PCM-0214752] | -22.8 | –
50 | Cc1ncc([N+](=O)[O-])n1CC(C)O (stereo not drawn) [PCM-0086479] | -3.9 | –
51 | CS(=O)(=O)Nc1ccc([N+](=O)[O-])cc1OC1CCCCC1 [PCM-0215740] | 3.4 | –
52 | Nc1ccc(S(=O)(=O)Nc2cncc(Cl)n2)cc1 [PCM-0215142] | -10.9 | –
53 | COc1cc2nc(N3CCCC3)nc(NCCCCCN3CCCC3)c2cc1OC [PCM-0215440] | 17.8 | –
54 | CN(C)C(=N)N=C(N)N [PCM-0085761] | 21.8 | –
55 | Cn1cc(/C=C/C(=O)c2cccc(F)c2)cc1/C=C/C(=O)NO [PCM-0095164] | 34.2 | –
56 | NC(CO)C(=O)O (stereo not drawn) [PCM-0216194] | 1.7 | –
57 | CC(C)(C)c1cc(C(C)(C)C)c(NC(=O)c2c[nH]c3ccccc3c2=O)cc1O [PCM-0094963] | 49.8 | –
